Patent US11841361B2, “Microfluidic proximal tubule kidney-on-chip” (EMULATE, INC., priority 2019, dated 2023)

What was measured:
[1] = in vitro; conditions: human
Description: (§1) Additional transporter Tier 1 test substrates/substances include but are not limited to: 1. […] TEA; 4. PAH; 5. Estrone-3-sulfate (E3S); 6. Glycylsarcosine. In some embodiments, microfluidic devices are treated with a substance followed by a 30 minute flushing cycle. In some embodiments, microfluidic devices under go 100 ul/hr of flow during transported function measurements.
(§2) Permeability from the vascular (V) to luminal (L) direction (Papp(V−L)) and permeability from the luminal to vascular direction (Papp(L−V)) were determined along with calculating the efflux ratio (Papp(V−L)/PapP(L−V)). […] However, the values were included in the calculations to calculate the efflux ratio.

[2] = Prediction of clearance versus clinical values; conditions: proximal tubule Kidney chip
[3] = system: PT Kidney-Chip; assay: Barrier function: inulin leakage in PT Kidney-Chip; assay type: in vitro ADME, human; conditions: inulin added to apical channel
[4] = Material absorption into Kidney-Chip and perfusion manifold materials; assay type: physicochemical; conditions: REGM serum-free medium; 1-72 hr; glass control
Text: In some embodiments, Material Absorption is one exemplary readout. When testing compounds added to a PT Kidney Chip, a determination of material absorption is made for that compound. The following is a exemplary method for determining material adsorption of a compound.
Study Conditions. Study approach: Each experiment includes a number of controls and test conditions. These allow us to tease out: Adsorption to the vial/well-plate. Absorption vs. adsorption to the tested material.
• 1. Dissolve the small molecule in an aqueous phase (medium) and incubate it with the tested material. • 2. Measure the concentration of small molecule remaining in the aqueous phase (using mass spec, plate reader). • 3. Curve-fit the measured data to quantify the absorption and diffusion parameters.

[5] = system: proximal tubular epithelium; assay: Nephrotoxicity testing in Proximal Tubule Kidney-Chip; assay type: cell-based, human
[6] = system: Proximal Tubule Kidney-Chip; assay: Efflux ratio / permeability of probe substrates in Proximal Tubule Kidney-Chip
Description: as §1, §2

[7] = system: Transwell kidney cell cultures; assay: Efflux ratio of probe substrates in Transwell cultures; conditions: no inhibitor
[8] = system: OCT1/MATE1/MATE2-K; assay: in vitro; conditions: human, Kidney-Chip (Proximal Tubule), probe TEA
Text: (§3) Substrates for transporters are termed “victim”.

[9] = system: OCT2/MATE1/MATE2-K; assay: in vitro; conditions: human, Kidney-Chip (Proximal Tubule), probe Meformin (so in the source); metformin)
Text: as §3

[10] = system: Proximal Tubule Kidney-Chip; assay: Creatinine and PAH secretion/transport in PT Kidney-Chip; assay type: in vitro ADME, human; conditions: for mass balance: compound loss (inlet/outlet) in chip system / active transport (B-A versus A-B transport): S1 and HS chips; for active transport (B-A versus A-B transport): Day 8 and Day 15
Description: (§4) To measure creatinine secretion in the Proximal Tubule Kidney-Chip, the vascular compartment is perfused with medium containing 1 mg/dL of human creatinine, while the secretion of creatinine in the top channel is measured from chip effluent. Exemplary assay flow rate (Proximal Tubule Kidney-Chip) during this assays is 60 μL/hour. In some embodiments, samples of effluent are collected in outlet reservoirs of the module. In preferred embodiments, there is no dilution of effluent when using an exemplary commercial kit, e.g. Invitrogen™ Creatine Urinary Detection Kit (Thermo Fisher EIACUN as described at thermofisher.com, downloaded Jun. 20, 2019).
(§5) In some embodiments, creatinine transport is determined in relation to chip configuration and low vs. high flow. Creatinine Secretion: Creatinine Loss (BI-BO); Creatinine filtration (TO/BO); Apical Creatinine (TO).
(§6) After activation, S1 (tall channel) chips and high shear chips are coated with Emulate ECM (i.e. Col IV+ Matrigel) on the side of the membrane (typically the top channel) intended for seeding with PT Kidney Cells. For monocultures, proximal tubular cells are seeded into the channel with the ECM coated membrane. For co-culturing PT Kidney Cells (system), glomerular microvascular endothelial cells are seeded on bottom channel and incubated for overnight. The following day, proximal tubular cells are seeded into the top channel (where the membrane is coated with ECM) and cultured for 2 days under static conditions, i.e. no fluid flow. Chips will be connected to a culture module at day 3 along with starting flow at 150 ul/h for both channels. Media should be replenished daily. At day 7, PAH and Creatinine will be dosed Apically under a 150 ul/h flow rate then A to B transport will be measured. Initial collection (after 2 hours) will be discard and during the following 22 hours effluent fluid (media) will be collected at desired times for measurements. At day 8, PAH and Creatinine will then be dosed Basally at 150 ul/h flow rate and B to A transport will be measured. Initial collection during 2 hours will be discarded and over the following 22 hours, the media will be collected for measurement. At day 9, the chip will be return to culture mode and cultured for additional […]. At day 14 PAH and Creatinine will be dosed Apically at 150 ul/h flow rate and A to B transport will be measured. Initial collection (2 hours) will be discard and during the following 22 hours the media will be collected for measurement. At day 15, PAH and Creatinine will be dosed Basally at 150 ul/h flow rate and B to A transport will be measured. Initial collection during 2 hours will be discarded and the following 22 hours, the media will be collected for measurement.

[11] = as above; assay type: in vitro ADME, human; conditions: human, Proximal Tubule Kidney-Chip; read-out: recovery of compound in the chip
Description: as §4, §5, §6

[12] = system: P-gp (digoxin); MATE1/MATE2-K (metformin); OAT1 (PAH); assay: in vitro

Compound: Nc1ncnc2c1ncn2CCOCP(=O)(O)O [Adefovir]
- efflux ratio ([1]; Kidney-Chip Efflux Ratio): 2.01
- predicted clearance value as % of clinical value [2]: 85%

Compound: inulin
- Inulin leakage into the basal channel [3]: no significant inulin leakage

Compound: C[C@]12CC[C@@H]3c4ccc(OS(=O)(=O)O)cc4CC[C@H]3[C@@H]1CCC2=O [Estrone-3-sulfate]
- absorption into system materials (chip material, perfusion manifold material) [4]: Minimal absorption

Compound: Gentamicin
- LDH in medium effluent ([5]; 10 mM, 48 hours): significant increase
- N-acetyl-beta-(D)-glucosaminidase activity (NAG) in medium effluent ([5]; 10 mM, 48 hours): significant increases
- TUNEL assay ([5]; 10 mM, 48 hours): significant DNA damage
- active caspase-3 in cells lysates ([5]; 10 mM, 48 hours): increase
- microscopic analysis of the proximal tubular epithelium ([5]; 10 mM, 48 hours): structural damage
- reactive oxygen species (ROS) ([5]; 10 mM, 48 hours): significant increases
- Morphology ([5]; dosing at Day 7 for 24 h, Gentamicin 10 mM, Cisplatin 100 μM): Damaged

Compound: CC[N+](CC)(CC)CC [TEA, Tetraethylammonium]
- Kidney-Chip Efflux Ratio ([6]; no inhibitor): 6.95+/−0.60
- efflux ratio ([6]; transport studies comparing different flow rates, conditions tested): > 2
- Transwell Efflux Ratio [7]: 1.11+/−0.06

Compound: C[C@H]1O[C@@H](O[C@H]2[C@@H](O)C[C@H](O[C@H]3[C@@H](O)C[C@H](O[C@H]4CC[C@@]5(C)[C@H](CC[C@@H]6[C@@H]5C[C@@H](O)[C@]5(C)[C@@H](C7=CC(=O)OC7)CC[C@]65O)C4)O[C@@H]3C)O[C@@H]2C)C[C@H](O)[C@@H]1O [Digoxin]
- absorption into system materials (chip material, perfusion manifold material) [4]: Minimal absorption

Compound: CN/C(=N/CCSCc1nc[nH]c1C)NC#N [Cimetidine]
- IC50 [8]: 3.16 µM
- IC50 [9]: 4.41 µM
- reduction of PAH secretion ([10]; S1 chip, trend, statistically not significant): 10%

Compound: CN(C)C(=N)N=C(N)N [Metformin]
- efflux from the vascular channel to the luminal channel ([6]; day 8, S1 chip, 30 μL/hr, time-dependent): significant efflux

Compound: CC[C@@]1(O)C(=O)OCc2c1cc1n(c2=O)Cc2cc3c(CN(C)C)c(O)ccc3nc2-1 [Topotecan]
- absorption into system materials (chip material, perfusion manifold material) [4]: Minimal absorption

Compound: CN1CC(=O)NC1=N [Creatinine, 2-amino-1-methyl-5H-imadazol-4-one]
- recovery [11]: ~100%
- mass balance: compound loss (inlet/outlet) in chip system [10]: No significant creatinine loss
- active transport (B-A versus A-B transport) [10]: significant active transport
- Creatinine loss (BI-BO) ([10]; bottom channel): 2.5 to 4 mM
- creatinine filtration (TO/BO) ([10]; low flow): About 50%

Compound: CCCN(CCC)S(=O)(=O)c1ccc(C(=O)O)cc1 [Probenecid]
- reduction of creatinine secretion ([10]; S1 chip, inhibitor incubated 3 hours, trend, statistically not significant): 10%

Compound: CCCCC(=O)N(Cc1ccc(-c2ccccc2-c2nnn[nH]2)cc1)[C@H](C(=O)O)C(C)C [Valsartan]
- absorption into system materials (chip material, perfusion manifold material) [4]: Minimal absorption

Compound: Nc1ccc(C(=O)NCC(=O)O)cc1 [PAH, p-aminohippuric acid]
- efflux ratio ([1]; Kidney-Chip Efflux Ratio): 4.84
- efflux ratio ([1]; efflux ratio): 2.4 to 2.7
- recovery [11]: ~100%
- mass balance: compound loss (inlet/outlet) in chip system [10]: No significant PAH loss
- active transport (B-A versus A-B transport) [10]: significant active transport
- PAH loss (BI-BO) ([10]; bottom channel): 20 to 40 µg/mL
- PHA transport (TO/BO) ([10]; low flow): about 20%
- efflux ratio [12]: 1.37
- predicted clearance value as % of clinical value [2]: 72%
